Experiments:
IncC2 = molecular target: T1, IncC2 (Escherichia coli, UniProt P07673); experiment: glutaraldehyde cross-linking with the IncC1 N-terminal domain; details: 2 mM ADP, 10 mM MgCl2, 25 mM phosphate pH 7.5; nucleotide-dependent binding of NTD to IncC2
T1 construct: gene incC; short form 259 aa (IncC1 without residues 1-105), His6-tagged from modified pET28a (pGBT343), expressed in E. coli BL21, nickel-agarose; thrombin cleavage of tag described
T1 sequence (P07673 106-364): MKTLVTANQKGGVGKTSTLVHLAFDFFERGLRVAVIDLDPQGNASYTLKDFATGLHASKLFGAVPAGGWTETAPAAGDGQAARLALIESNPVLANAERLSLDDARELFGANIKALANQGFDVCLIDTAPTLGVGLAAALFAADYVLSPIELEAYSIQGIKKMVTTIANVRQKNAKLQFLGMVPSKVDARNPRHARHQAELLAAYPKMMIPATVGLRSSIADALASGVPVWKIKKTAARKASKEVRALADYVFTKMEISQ

IncC1 = molecular target: T2, IncC1 (Escherichia coli, UniProt P07673); experiment: velocity sedimentation (analytical ultracentrifugation), dimer formation; assay type: binding; details: read-out: Kapp
T2 construct: gene incC; full-length 364 aa, His6-tagged from modified pET28a (pGBT342), expressed in E. coli BL21, nickel-agarose; thrombin cleavage of tag described; monomer 40 kDa, dimer 80 kDa with ATP
T2 sequence (P07673 1-364): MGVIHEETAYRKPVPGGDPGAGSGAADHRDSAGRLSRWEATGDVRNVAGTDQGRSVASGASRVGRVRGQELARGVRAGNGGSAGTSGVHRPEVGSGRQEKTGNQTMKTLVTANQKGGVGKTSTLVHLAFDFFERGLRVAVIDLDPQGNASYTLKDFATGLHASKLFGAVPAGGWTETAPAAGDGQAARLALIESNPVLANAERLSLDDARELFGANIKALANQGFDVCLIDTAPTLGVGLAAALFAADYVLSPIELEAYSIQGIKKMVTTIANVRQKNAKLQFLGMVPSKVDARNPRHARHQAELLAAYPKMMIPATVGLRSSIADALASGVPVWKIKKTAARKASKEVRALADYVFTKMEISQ

[1] = molecular target: the molecule itself; experiment: AUC; velocity sedimentation, 30 μM IncC1 with varying ATP concentrations, with magnesium; 50 mM sodium phosphate pH 8.0, 100 mM NaCl, 40,000 rpm, 4 °C
[2] = molecular target: T3, IncC2 (259 aa), short ParA protein made from the second translational start of incC of plasmid RK2 (plasmid RK2 (IncP-1), UniProt P07673 106-364); experiment: cross-linking; glutaraldehyde 0-0.1%, with 2 mM ATP; 5 μg of each protein in 50 μl, 10 mM MgCl2, 25 mM phosphate buffer pH 7.5; 30 min 37 °C, then 30 min 30 °C with glutaraldehyde; SDS-PAGE, Western blot with anti-IncC; details: both partners purified
T3 construct: IncC2, the product of the second translational start of incC of plasmid RK2, 259 aa; it lacks the N-terminal domain (amino acids 1-105) of IncC1; numbers count on IncC1; also called His6-IncC2; source: E. coli BL21 (printed: C600 BL21), modified pET28a vector, purified (nickel-agarose)
T3 sequence (looked up): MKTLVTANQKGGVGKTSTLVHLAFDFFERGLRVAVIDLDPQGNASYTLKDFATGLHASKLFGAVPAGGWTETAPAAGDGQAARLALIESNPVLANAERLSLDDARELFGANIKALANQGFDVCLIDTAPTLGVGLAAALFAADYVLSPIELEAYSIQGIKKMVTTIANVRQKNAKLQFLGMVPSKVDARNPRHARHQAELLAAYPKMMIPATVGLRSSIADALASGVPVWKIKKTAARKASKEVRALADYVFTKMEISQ

Nc1ncnc2c1ncn2[C@@H]1O[C@H](COP(=O)(O)OP(=O)(O)O)[C@@H](O)[C@H]1O [ADP]
glutaraldehyde cross-linking with the IncC1 N-terminal domain (IncC2): In the presence of either ATP or ADP, the NTD was found to interact with IncC2 | Kd (IncC1): 54 µM

Nc1ncnc2c1ncn2[C@@H]1O[C@H](COP(=O)(O)OP(=O)(O)OP(=O)(O)O)[C@@H](O)[C@H]1O [ATP]
Kd (IncC1): 7.7 µM

B1: IncC1 (364 aa), long ParA protein encoded by incC of broad-host-range plasmid RK2 (natural protein, plasmid RK2 (IncP-1), UniProt P07673 1-364, looked up)
chain: MGVIHEETAYRKPVPGGDPGAGSGAADHRDSAGRLSRWEATGDVRNVAGTDQGRSVASGASRVGRVRGQELARGVRAGNGGSAGTSGVHRPEVGSGRQEKTGNQTMKTLVTANQKGGVGKTSTLVHLAFDFFERGLRVAVIDLDPQGNASYTLKDFATGLHASKLFGAVPAGGWTETAPAAGDGQAARLALIESNPVLANAERLSLDDARELFGANIKALANQGFDVCLIDTAPTLGVGLAAALFAADYVLSPIELEAYSIQGIKKMVTTIANVRQKNAKLQFLGMVPSKVDARNPRHARHQAELLAAYPKMMIPATVGLRSSIADALASGVPVWKIKKTAARKASKEVRALADYVFTKMEISQ
notes: IncC1, the product of the first translational start of incC (parA) of IncP-1 plasmid RK2, 364 aa; also called His6-IncC1; His-IncC1; source: E. coli BL21 (printed: C600 BL21), modified pET28a vector, purified (nickel-agarose)
stoichiometry N [1]: 2

B2: N-terminal domain of IncC1 (amino acids 1-105) (domain or fragment, plasmid RK2 (IncP-1), UniProt P07673 1-105, looked up)
chain: MGVIHEETAYRKPVPGGDPGAGSGAADHRDSAGRLSRWEATGDVRNVAGTDQGRSVASGASRVGRVRGQELARGVRAGNGGSAGTSGVHRPEVGSGRQEKTGNQT
notes: N-terminal domain of IncC1 of plasmid RK2, amino acids 1-105, 11 kDa; also called NTD; IncC1 NTD; source: E. coli, expressed from pSMB315 (pGBT340 with incC1-NTD), purified
binding result [2]: binds

— PMC2666795, “Bacterial Genome Partitioning: N-Terminal Domain of IncC Protein Encoded by Broad-Host-Range Plasmid RK2 Modulates Oligomerisation and DNA Binding” (Journal of Molecular Biology, 2009)
